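1) Cells in 96-well plates. 2) Compound, 48 h, 5 concentrations. 3) Linear interpolation between surrounding doses. 4) Unreached endpoint = highest concentration. The concentration for 50% growth inhibition is given as GI50. Definition used: TGI = concentration required for complete inhibition of growth.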
Tests used:
Test in all cases: growth of human tumour cells (NCI), 48 h; in the data active means GI50 below about 0.43 µM; inactive means the rest
[1] = system: SF-295 CNS
[2] = system: NCI/ADR-RES ovarian
[3] = system: U251 CNS
[4] = system: HOP-92 NSCLC
[5] = system: SK-MEL-2 melanoma
[6] = system: SK-MEL-5 melanoma
[7] = system: SF-268 CNS
[8] = system: HCT-116 colon
[9] = system: HCC-2998 colon
[10] = system: KM12 colon
[11] = system: 786-0 renal
[12] = system: M14 melanoma
[13] = system: MDA-MB-231 breast
[14] = system: RPMI-8226 leukemia
[15] = system: HCT-15 colon
[16] = system: ACHN renal
[17] = system: TK-10 renal
[18] = system: HS 578T breast
[19] = system: OVCAR-3 ovarian
[20] = system: HL-60(TB) leukemia
[21] = system: MALME-3M melanoma
[22] = system: DU-145 prostate
[23] = system: NCI-H460 lung
[24] = system: CAKI-1 renal
[25] = system: UO-31 renal
[26] = system: NCI-H226 lung
[27] = system: UACC-257 melanoma
[28] = system: SR leukemia
[29] = system: OVCAR-5 ovarian
[30] = system: SF-539 CNS
[31] = system: HT29 colon
[32] = system: SK-MEL-28 melanoma
[33] = system: NCI-H522 lung
[34] = system: SW-620 colon
[35] = system: T-47D breast
[36] = system: MOLT-4 leukemia
[37] = system: IGROV1 ovarian
[38] = system: HOP-62 NSCLC
[39] = system: OVCAR-8 ovarian
[40] = system: UACC-62 melanoma
[41] = system: LOX IMVI melanoma
[42] = system: SNB-19 CNS
[43] = system: NCI-H23 lung
[44] = system: PC-3 prostate
[45] = system: K-562 leukemia
[46] = system: A549 NSCLC
[47] = system: BT-549 breast
[48] = system: RXF 393 renal
[49] = system: SNB-75 CNS
[50] = system: SN12C renal
[51] = system: MCF7 breast
[52] = system: A498 renal
[53] = system: CCRF-CEM leukemia
[54] = system: OVCAR-4 ovarian
[55] = system: COLO 205 colon
[56] = system: EKVX NSCLC
[57] = system: SK-OV-3 ovarian

CCOC(=O)Nn1c(C)nnc1CC#N
> 100 µM: TGI [1] | TGI [2] | TGI [3] | TGI [4] | TGI [5] | TGI [6] | TGI [7] | TGI [8] | TGI [9] | TGI [10] | TGI [11] | TGI [12] | TGI [13] | TGI [14] | TGI [15] | TGI [16] | TGI [17] | TGI [18] | TGI [19] | TGI [20] | TGI [21] | TGI [22] | TGI [23] | TGI [24] | TGI [25] | TGI [26] | TGI [27] | TGI [28] | TGI [29] | TGI [30] | TGI [31] | TGI [32] | TGI [33] | TGI [34] | TGI [35] | TGI [36] | TGI [37] | TGI [38] | TGI [39] | TGI [40] | TGI [41] | TGI [42] | TGI [43] | TGI [44] | TGI [45] | TGI [46] | TGI [47] | TGI [48] | TGI [49] | TGI [50] | TGI [51]

COc1cc2ncn(-c3cc(O[C@H](C)c4ccccc4Cl)c(C(N)=O)s3)c2cc1OC
6.44 µM: TGI [8]
6.18 µM: TGI [9]
8.72 µM: TGI [2]
5.6 µM: TGI [51]
6.99 µM: TGI [26]
active: GI50 [52] 0.0121 µM | GI50 [1] 0.0127 µM | GI50 [53] 0.0025 µM | GI50 [2] 0.00812 µM | GI50 [3] 0.0161 µM | GI50 [5] 0.00679 µM | GI50 [6] 0.00912 µM | GI50 [7] 0.016 µM | GI50 [8] 0.0102 µM | GI50 [9] 0.0148 µM | GI50 [10] 0.00728 µM | GI50 [11] 0.0412 µM | GI50 [13] 0.021 µM | GI50 [14] 0.0102 µM | GI50 [15] 0.0107 µM | GI50 [17] 0.414 µM | GI50 [18] 0.0652 µM | GI50 [55] 0.00544 µM | GI50 [19] 0.00664 µM | GI50 [20] 0.00681 µM | GI50 [23] 0.00955 µM | GI50 [24] 0.0999 µM | GI50 [26] 0.228 µM | GI50 [56] 0.0872 µM | GI50 [28] 0.00792 µM | GI50 [29] 0.0139 µM | GI50 [30] 0.0109 µM | GI50 [31] 0.00432 µM | GI50 [33] 0.00656 µM | GI50 [34] 0.0055 µM | GI50 [35] 0.146 µM | GI50 [36] 0.00979 µM | GI50 [37] 0.0197 µM | GI50 [38] 0.0158 µM | GI50 [39] 0.0114 µM | GI50 [40] 0.154 µM | GI50 [41] 0.0105 µM | GI50 [42] 0.0225 µM | GI50 [57] 0.0097 µM | GI50 [43] 0.01 µM | GI50 [44] 0.0141 µM | GI50 [45] 0.00874 µM | GI50 [46] 0.014 µM | GI50 [47] 0.0888 µM | GI50 [48] 0.00947 µM | GI50 [49] 0.0238 µM | GI50 [50] 0.0692 µM | GI50 [51] 0.00431 µM
20.8 µM: TGI [24]
3.53 µM: TGI [48]
3.86 µM: TGI [10]
1.24 µM: TGI [23]
> 14.4 µM: TGI [46]
inactive: GI50 [4] 0.489 µM | GI50 [16] 1.04 µM | GI50 [54] 3.67 µM | GI50 [21] 1.71 µM | GI50 [25] 0.482 µM | GI50 [27] 2.93 µM
3.11 µM: TGI [11]
4.58 µM: TGI [55]
> 25 µM: TGI [1] | TGI [3] | TGI [13] | TGI [15] | TGI [16] | TGI [54] | TGI [56] | TGI [38] | TGI [42] | TGI [44] | TGI [45]
> 6.4 µM: TGI [28]
3.89 µM: TGI [20]
3.59 µM: TGI [49]
4.37 µM: TGI [41]
3.99 µM: TGI [14]
13.1 µM: TGI [53]
4.26 µM: TGI [31]
7.43 µM: TGI [40]
11.8 µM: TGI [39]
> 21.5 µM: TGI [50]
4.45 µM: TGI [17]
1.08 µM: TGI [6]
2.74 µM: TGI [30]
12.3 µM: TGI [21]
4.44 µM: TGI [47]
12.9 µM: TGI [37]
12.7 µM: TGI [57]
3.76 µM: TGI [36]
4.39 µM: TGI [43]
7.47 µM: TGI [4]
20.1 µM: TGI [7]
12.1 µM: TGI [25]
2.15 µM: TGI [19]
2.84 µM: TGI [33]
0.194 µM: TGI [52]
> 23.8 µM: TGI [29]
5.57 µM: TGI [34]
0.804 µM: TGI [18]
15.4 µM: TGI [27]
7.76 µM: TGI [35]
5.02 µM: TGI [5]

COc1ccc2[nH]c(-c3ccccc3)c(/C=C(\C#N)S(=O)(=O)c3ccccc3)c2c1
29.3 µM: TGI [6]
66.7 µM: TGI [57]
7.11 µM: TGI [20]
24.4 µM: TGI [19]
25.5 µM: TGI [37]
> 100 µM: TGI [53] | TGI [2] | TGI [3] | TGI [7] | TGI [8] | TGI [9] | TGI [10] | TGI [11] | TGI [12] | TGI [13] | TGI [15] | TGI [16] | TGI [54] | TGI [17] | TGI [55] | TGI [21] | TGI [22] | TGI [23] | TGI [26] | TGI [56] | TGI [29] | TGI [31] | TGI [32] | TGI [34] | TGI [35] | TGI [36] | TGI [38] | TGI [39] | TGI [41] | TGI [42] | TGI [43] | TGI [44] | TGI [45] | TGI [46] | TGI [47] | TGI [50] | TGI [51]
43.4 µM: TGI [24]
46.7 µM: TGI [33]
20.3 µM: TGI [5]
inactive: GI50 [52] 9.31 µM | GI50 [1] 2.79 µM | GI50 [53] 6.52 µM | GI50 [2] 3.83 µM | GI50 [3] 4.59 µM | GI50 [4] 6.05 µM | GI50 [5] 3.7 µM | GI50 [6] 3.05 µM | GI50 [7] 13.3 µM | GI50 [8] 3.74 µM | GI50 [9] 18.7 µM | GI50 [10] 2.96 µM | GI50 [11] 6.07 µM | GI50 [12] 3.72 µM | GI50 [13] 7.48 µM | GI50 [15] 4.02 µM | GI50 [16] 12.9 µM | GI50 [54] 8.33 µM | GI50 [17] 17.5 µM | GI50 [18] 7.59 µM | GI50 [55] 7.35 µM | GI50 [19] 4.96 µM | GI50 [20] 2.38 µM | GI50 [21] 19.4 µM | GI50 [22] 10.1 µM | GI50 [23] 4.55 µM | GI50 [24] 4.47 µM | GI50 [25] 4.03 µM | GI50 [26] 9.41 µM | GI50 [27] 4.92 µM | GI50 [56] 6.86 µM | GI50 [28] 2.21 µM | GI50 [29] 37.3 µM | GI50 [30] 5.48 µM | GI50 [31] 3.49 µM | GI50 [32] 6.05 µM | GI50 [33] 3.98 µM | GI50 [34] 3.97 µM | GI50 [35] 5.18 µM | GI50 [36] 4.7 µM | GI50 [37] 4.79 µM | GI50 [38] 8.38 µM | GI50 [39] 7.96 µM | GI50 [40] 3.83 µM | GI50 [41] 7.4 µM | GI50 [42] 13.5 µM | GI50 [57] 7.05 µM | GI50 [43] 7.97 µM | GI50 [44] 8.3 µM | GI50 [45] 1.42 µM | GI50 [46] 5.98 µM | GI50 [47] 11.6 µM | GI50 [49] 5.92 µM | GI50 [50] 7.76 µM | GI50 [51] 3.93 µM
28.7 µM: TGI [1]
60.7 µM: TGI [40]
15.7 µM: TGI [28]
69 µM: TGI [27]
44.8 µM: TGI [49]
85.5 µM: TGI [18]
34.5 µM: TGI [25]
36.3 µM: TGI [4]
34.7 µM: TGI [30]
44.6 µM: TGI [52]

— PubChem BioAssay (NCI)
